Test results reported in patent US20230126310A1 (priority 2020, published 2023).
Counter-ions that a name gives are not always drawn. Like-named read-outs stand apart in the source and are kept apart here.

Assays:
SARS-CoV-2 [1] = details: for % Inh. (% Inhibition of SARS-CoV-2): 10 µM; for % Inh (% inhibition of virus infection): comparative experiments, Examples 1 and 2
[2] = test system: SARS-CoV-2 (BetaCov/Belgium/GHB-03021/2020); assay: microbe, parasite or virus in culture; type: cell-based; details: for Emax / IC50: Severe acute respiratory syndrome coronavirus 2, 120 h; for Emax: read-out: Maximum confluence reached (%)
SARS-CoV-2 [3] = assay: microbe, parasite or virus in culture; details: Severe acute respiratory syndrome coronavirus 2, Caco-2, 48 h; for inhibition at 10 µM: read-out: % Inh. (% Inhibition of SARS-CoV-2)
[4] = Compound cytotoxicity against CaCo-2 cells at 48 hours; type: cell-based, Human; details: human, CaCo-2 cells
Procedure: The cytotoxicity of the profiled compounds towards CaCo-2 cells at 48 hours was assessed. […] After 48 hours, cytotoxicity was evaluated using both digital phase contrast readout as described above and ATP determination (Cell titre-glo, Promega Corp).

[5] = comparative experiments, 48 hours
[6] = Table 5, further results of Examples 1 and 2, mean ± spread

COc1cc2ncnc(Nc3cccc(Br)c3)c2cc1OC.Cl [PD153035 (Hydrochloride)]
% Inh. (% Inhibition of SARS-CoV-2) (SARS-CoV-2 [1]): 97.2%
Maximum confluence reached (%) [2]: 54.45%

CCCCN(CCCC)CCC(O)c1cc2c(Cl)cc(Cl)cc2c2cc(C(F)(F)F)ccc12 (centres unmarked) [Halofantrine]
inhibition at 10 µM (SARS-CoV-2 [3]): 91.4%
Emax [2]: 51.8%

OCCNC1CCCc2c1[nH]c1ccc(-c3ccccc3)cc21 (centres unmarked) [casin]
% Inh. (% Inhibition of SARS-CoV-2) (SARS-CoV-2 [1]): 71.2%
Maximum confluence reached (%) [2]: 50.81%

O=C(O)Cc1cccc(OCCCN(Cc2cccc(C(F)(F)F)c2Cl)CC(c2ccccc2)c2ccccc2)c1 [GW-3965]
inhibition at 10 µM (SARS-CoV-2 [3]): 91.4%
Emax [2]: 38%

NC(=O)c1nnn(Cc2cc(Cl)c(C(=O)c3ccc(Cl)cc3)c(Cl)c2)c1N [carboxyamidotriazole]
% Inh (% inhibition of virus infection) (SARS-CoV-2 [1]): 135.1%
CC50 at 48 h [4, 5]: 0.11 ± 0.04 µM

CC(C)C(=O)OCC(=O)[C@@]12O[C@H](C3CCCCC3)O[C@@H]1C[C@H]1[C@@H]3CCC4=CC(=O)C=C[C@]4(C)[C@H]3[C@@H](O)C[C@@]12C [Ciclesonide]
inhibition at 10 µM (SARS-CoV-2 [3]): 85.4%
IC50 [2]: 47 µM
Emax [2]: 35.2%

CC/C(=C(\c1ccc(O)cc1)c1ccc(OCCNC)cc1)c1ccccc1 [Endoxifen HCl]
IC50 [2]: 6.34 µM
Emax [2]: 35.7%

CCCCCCCCN=c1ccn(CCCCCCCCCCn2ccc(=NCCCCCCCC)cc2)cc1 [Octenidine Dihydrochloride]
IC50 (SARS-CoV-2 [3]): 1.14 µM
inhibition at 10 µM (SARS-CoV-2 [3]): 77%
IC50 (SARS-CoV-2 [3]; read-out: pIC50 (converted)): 1.15 µM
CC50 at 48 h [4, 6]: 2.4 ± 0.09 µM

CC(C)(C)Cn1c(N)nc2ccc(-c3[nH]c(C(C)(C)C)nc3-c3ccc(F)cc3)nc21 [LY2228820, Ralimetinib]
inhibition at 10 µM (SARS-CoV-2 [3]): 112%
CC50 at 48 h [4, 6]: 56.2 ± 9.79 µM

CNC(=O)c1cc(Oc2ccc(NC(=O)Nc3ccc(Cl)c(C(F)(F)F)c3)cc2)ccn1 [Sorafenib Tosylate]
IC50 (SARS-CoV-2 [3]): 1.21 µM
inhibition at 10 µM (SARS-CoV-2 [3]): 78.7%
IC50 (SARS-CoV-2 [3]; read-out: pIC50 (converted)): 1.2 µM
CC50 at 48 h [4, 6]: 1.17 ± 0.43 µM

C=CCNc1nc(NCC=C)nc(N2CCN(C(c3ccc(F)cc3)c3ccc(F)cc3)CC2)n1 [Almitrine dimesilate]
IC50 (SARS-CoV-2 [3]): 1.21 µM
inhibition at 10 µM (SARS-CoV-2 [3]): 93.2%
IC50 (SARS-CoV-2 [3]; read-out: pIC50 (converted)): 1.2 µM
CC50 at 48 h [4, 6]: 102 ± 73.6 µM

CC(=O)[C@]1(O)Cc2c(O)c3c(c(O)c2[C@@H](O[C@H]2C[C@H](N)[C@H](O)[C@H](C)O2)C1)C(=O)c1ccccc1C3=O [Idarubicin HCl]
IC50 (SARS-CoV-2 [3]): 25 µM
inhibition at 10 µM (SARS-CoV-2 [3]): 86.6%
IC50 (SARS-CoV-2 [3]; read-out: pIC50 (converted)): 25.1 µM
Emax [2]: 92.6%

C[C@@H]1C[C@@H]([C@H](O)CC2CC(=O)NC(=O)C2)C(=O)[C@@H](C)C1 [CYCLOHEXIMIDE]
Emax [2]: 63.7%

Fc1ccc(C(c2ccc(F)cc2)N2CCN(C/C=C/c3ccccc3)CC2)cc1 [flunarizine]
inhibition at 10 µM (SARS-CoV-2 [3]): 79.1%
CC50 at 48 h [4, 6]: 137 ± 72.3 µM

CNC(=O)c1ccc(C)c(-n2c(C)cc(OCc3ccc(F)cc3F)c(Br)c2=O)c1 [PH-797804]
IC50 (SARS-CoV-2 [3]): 20.7 µM
inhibition at 10 µM (SARS-CoV-2 [3]): 81.5%
IC50 (SARS-CoV-2 [3]; read-out: pIC50 (converted)): 20.4 µM
CC50 at 48 h [4, 6]: 20 ± 3.1 µM

N=C(N)c1ccc2cc(OC(=O)c3ccc(N=C(N)N)cc3)ccc2c1 [Nafamostat mesylate]
% Inh (% inhibition of virus infection) (SARS-CoV-2 [1]): 89.8%
CC50 at 48 h [4, 5]: > 20 µM

Cc1c(C(=O)Nc2ccc(N3C[C@@H](C)O[C@@H](C)C3)nc2)cccc1-c1ccc(OC(F)(F)F)cc1 [LDE225 (NVP-LDE225, Erismodegib), Erismodegib]
IC50 (SARS-CoV-2 [3]): 7.03 µM
inhibition at 10 µM (SARS-CoV-2 [3]): 93.5%
IC50 (SARS-CoV-2 [3]; read-out: pIC50 (converted)): 7.08 µM
CC50 at 48 h [4, 6]: 2.26 ± 1.28 µM

O=C(Nc1nc(-c2cc(Cl)cs2)c(N2CCN(C3CCCCC3)CC2)s1)c1cnc(N2CCC(C(=O)O)CC2)c(Cl)c1 [Avatrombopag]
IC50 (SARS-CoV-2 [3]): 7.17 µM
inhibition at 10 µM (SARS-CoV-2 [3]): 95.9%
IC50 (SARS-CoV-2 [3]; read-out: pIC50 (converted)): 7.24 µM
CC50 at 48 h [4, 6]: 20.9 ± 29.5 µM
